Where two headings read alike, the source gives them in different places.
Molecular target: SMYD3 (Homo sapiens (Human), UniProt Q9H7B4)
Assay: SMYD3 biochemical assay (SMYD3 enzyme assay on MEKK2 protein substrate, 3H-SAM scintillation proximity assay)
In short: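 Native full-length human SMYD3, expressed in E. coli, was preincubated with compound for 30 min at room temperature in 25 mM Tris-Cl pH 8.0, 1 mM TCEP, 0.005% BSG and 0.005% Tween 20. ³H-SAM plus GST-MEKK2 then started the reaction. It was stopped with unlabeled SAM (100 uM final), and methylated MEKK2 was read by SPA.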

[1] = read-out: SMYD3 Biochem IC50 (μM)*
[2] = Table 1A, average of n = 1 to n = 50, read-out: SMYD3 Biochem IC50

Chain of SMYD3 (Q9H7B4 whole entry): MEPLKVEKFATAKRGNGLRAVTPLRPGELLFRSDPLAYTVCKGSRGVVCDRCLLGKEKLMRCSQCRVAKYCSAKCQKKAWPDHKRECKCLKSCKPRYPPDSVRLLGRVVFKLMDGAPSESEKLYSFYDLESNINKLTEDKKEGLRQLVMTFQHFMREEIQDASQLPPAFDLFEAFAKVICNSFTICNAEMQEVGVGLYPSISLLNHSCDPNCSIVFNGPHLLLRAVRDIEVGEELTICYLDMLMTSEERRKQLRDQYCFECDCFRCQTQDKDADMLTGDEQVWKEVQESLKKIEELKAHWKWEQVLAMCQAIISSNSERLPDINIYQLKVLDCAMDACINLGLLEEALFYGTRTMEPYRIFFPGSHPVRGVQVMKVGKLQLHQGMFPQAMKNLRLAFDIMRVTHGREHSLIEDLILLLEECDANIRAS

Row | Structure (SMILES) | IC50 [1] | IC50 (read-out: SMYD3 Biochem IC50) | further results
1 | CC(NC(=O)c1ccc2oc(=O)ccc2c1)C1CCN(C(=O)[C@H](C)N)CC1 (stereo partly drawn) [compound 95, N-(1-(1-(L-alanyl)piperidin-4-yl)ethyl)-2-oxo-2H-chromene-6-carboxamide] | 150 µM | – | –
2 | CC(NC(=O)c1c[nH]c2ccccc12)C1CCN(C(=O)[C@H](C)N)CC1 (stereo partly drawn) [compound 268, N-(1-(1-(L-alanyl)piperidin-4-yl)ethyl)-1H-indole-3-carboxamide] | – | > 100 µM | –
3 | CC(NC(=O)c1ccc2[nH]ccc2c1)C1CCN(C(=O)[C@H](C)N)CC1 (stereo partly drawn) [compound 283, N-(1-(1-(L-alanyl)piperidin-4-yl)ethyl)-1H-indole-5-carboxamide] | – | > 100 µM | –
4 | Cc1cc2[nH]c(C(=O)NC3CCNCC3)cc2o1 [compound 58, 2-methyl-N-(piperidin-4-yl)-4H-furo[3,2-b]pyrrole-5-carboxamide] | 76.1 µM | – | –
5 | N[C@H]1CC[C@H](NC(=O)c2ccc3c(c2)NC(=O)CC3)CC1 [compound 91, N-((1r,4r)-4-aminocyclohexyl)-2-oxo-1,2,3,4-tetrahydroquinoline-7-carboxamide] | 89.5 µM | – | –
6 | O=C1Cc2cc(C(=O)NC[C@H]3CCNC3)ccc2N1 [compound 101, (S)-2-oxo-N-(pyrrolidin-3-ylmethyl)indoline-5-carboxamide] | 25.4 µM | – | –
7 | NCCC(=O)N[C@H]1CC[C@H](NC(=O)c2ncccn2)CC1 [compound 145, N-((1r,4r)-4-(3-aminopropanamido)cyclohexyl)pyrimidine-2-carboxamide] | > 100 µM | – | –
8 | N[C@H]1CC[C@H](NC(=O)c2nc3ccncc3s2)CC1 [compound 533, N-((1r,4r)-4-aminocyclohexyl)thiazolo[5,4-c]pyridine-2-carboxamide] | – | – | IC50 [2]: > 50 µM
9 | COc1cccc(C(=O)NC(C)C2CCN(C(=O)[C@H](C)N)CC2)n1 (stereo partly drawn) [compound 301, N-(1-(1-(L-alanyl)piperidin-4-yl)ethyl)-6-methoxypicolinamide] | – | > 100 µM | –
10 | CC(NC(=O)c1ccc(-n2cnnc2)cc1)C1CCN(C(=O)[C@H](C)N)CC1 (stereo partly drawn) [compound 226, N-(1-(1-(L-alanyl)piperidin-4-yl)ethyl)-4-(4H-1,2,4-triazol-4-yl)benzamide] | – | > 100 µM | –
11 | N[C@H]1CC[C@H](NC(=O)c2cn(C3CC3)nn2)CC1 [compound 11, N-((1r,4r)-4-aminocyclohexyl)-1-cyclopropyl-1H-1,2,3-triazole-4-carboxamide] | 15.4 µM | – | –
12 | CC(NC(=O)[C@H]1CC[C@H](N)CC1)C1CCN(C(=O)[C@H](C)N)CC1 (stereo partly drawn) [compound 262, (1r,4S)-N-(1-(1-(L-alanyl)piperidin-4-yl)ethyl)-4-aminocyclohexane-1-carboxamide] | – | > 100 µM | –
13 | NCCC(=O)N[C@H]1CC[C@H](NC(=O)c2ccc(S(N)(=O)=O)cc2)CC1 [compound 156, N-((1r,4r)-4-(3-aminopropanamido)cyclohexyl)-4-sulfamoylbenzamide] | > 100 µM | – | –
14 | Cc1ncc(C(=O)N[C@H]2CC[C@H](N)CC2)[nH]1 [compound 522, N-((1r,4r)-4-aminocyclohexyl)-2-methyl-1H-imidazole-5-carboxamide] | – | – | IC50 [2]: > 50 µM
15 | CC(NC(=O)Cc1c[nH]c2ccccc12)C1CCN(C(=O)[C@H](C)N)CC1 (stereo partly drawn) [compound 167, N-(1-(1-(L-alanyl)piperidin-4-yl)ethyl)-2-(1H-indol-3-yl)acetamide] | > 100 µM | – | –
16 | NCCC(=O)N[C@H]1CC[C@H](NC(=O)c2ccc(-c3ccccc3)cc2)CC1 [compound 154, N-((1r,4r)-4-(3-aminopropanamido)cyclohexyl)-[1,1′-biphenyl]-4-carboxamide] | 37.3 µM | – | –
17 | NCCC(=O)N[C@H]1CC[C@H](NC(=O)c2ccc3[nH]ccc3c2)CC1 [compound 235, N-((1r,4r)-4-(3-aminopropanamido)cyclohexyl)-1H-indole-5-carboxamide] | – | 13.4 µM | –
18 | N[C@H]1CC[C@H](NC(=O)c2ccc3ccccc3n2)CC1 [compound 164, N-((1r,4r)-4-aminocyclohexyl)quinoline-2-carboxamide] | > 100 µM | – | –
19 | CN(C(=O)c1ncn[nH]1)[C@H]1CC[C@H](N)CC1 [compound 561, N-((1r,4r)-4-aminocyclohexyl)-N-methyl-1H-1,2,4-triazole-5-carboxamide] | – | – | IC50 [2]: > 10 µM
20 | CC(NC(=O)c1ccc2ncc(O)nc2c1)C1CCN(C(=O)[C@H](C)N)CC1 (stereo partly drawn) [compound 99, N-(1-(1-(L-alanyl)piperidin-4-yl)ethyl)-3-hydroxyquinoxaline-6-carboxamide] | 35.7 µM | – | –
21 | Cn1nc(O)cc1C(=O)N[C@H]1CC[C@H](N)CC1 [compound 67, N-((1r,4r)-4-ammocyclohexyl)-3-hydroxy-1-methyl-1H-pyrazole-5-carboxamide] | 129 µM | – | –
22 | CS(=O)(=O)c1cccc(C(=O)N[C@H]2CC[C@H](NC(=O)CCN)CC2)c1 [compound 150, N-((1r,4r)-4-(3-aminopropanamido)cyclohexyl)-3-(methylsulfonyl)benzamide] | > 100 µM | – | –
23 | CC(NC(=O)c1cc(=O)c2ccccc2o1)C1CCN(C(=O)[C@H](C)N)CC1 (stereo partly drawn) [compound 224, N-(1-(1-(L-alanyl)piperidin-4-yl)ethyl)-4-oxo-4H-chromene-2-carboxamide] | – | > 100 µM | –
24 | Nc1nccnc1C(=O)N[C@H]1CC[C@H](N)CC1 [compound 153, 3-amino-N-((1r,4r)-4-aminocyclohexyl)pyrazine-2-carboxamide] | > 100 µM | – | –
25 | CC(NC(=O)c1cc(Cl)[nH]n1)C1CCN(C(=O)[C@H](C)N)CC1 (stereo partly drawn) [compound 527, N-(1-(1-(L-alanyl)piperidin-4-yl)ethyl)-5-chloro-1H-pyrazole-3-carboxamide] | – | – | IC50 [2]: > 50 µM
26 | CCc1cnc(C(=O)N[C@H]2CC[C@H](N)CC2)s1 [compound 554, N-((1r,4r)-4-aminocyclohexyl)-5-ethylthiazole-2-carboxamide] | – | – | IC50 [2]: > 50 µM
27 | Cc1nc(C(=O)N[C@H]2CC[C@H](N)CC2)n[nH]1 [compound 550, N-((1r,4r)-4-aminocyclohexyl)-5-methyl-1H-1,2,4-triazole-3-carboxamide] | – | – | IC50 [2]: 14.7 µM

More lines, main results first:

Row | IC50 [1] | IC50 (read-out: SMYD3 Biochem IC50) | Structure (SMILES) | further results
28 | – | 50 µM | NC(=O)Cn1cc(C(=O)N[C@H]2CC[C@H](N)CC2)nn1 [compound 501, 1-(2-amino-2-oxoethyl)-N-((1r,4r)-4-aminocyclohexyl)-1H-1,2,3-triazole-4-carboxamide] | –
29 | – | > 100 µM | COc1cccc2[nH]cc(C(=O)N[C@H]3CC[C@H](N)CC3)c12 [compound 372, N-((1r,4r)-4-aminocyclohexyl)-4-methoxy-1H-indole-3-carboxamide] | –
30 | – | 86.6 µM | NCCC(=O)N[C@H]1CC[C@H](NC(=O)c2nc3ccccc3[nH]2)CC1 [compound 374, N-((1r,4r)-4-(3-aminopropanamido)cyclohexyl)-1H-benzo[d]imidazole-2-carboxamide] | –
31 | – | > 100 µM | COc1cnc(C(=O)NC(C)C2CCN(C(=O)[C@H](C)N)CC2)cn1 (stereo partly drawn) [compound 302, N-(1-(1-(L-alanyl)piperidin-4-yl)ethyl)-5-methoxypyrazine-2-carboxamide] | –
32 | – | > 50 µM | Cc1cc2cc(C(=O)N[C@H]3CC[C@H](NC(=O)CCN)CC3)ccc2[nH]1 [compound 519, N-((1r,4r)-4-(3-aminopropanamido)cyclohexyl)-2-methyl-1H-indole-5-carboxamide] | –
33 | – | > 50 µM | NC1CCC(NC(=O)c2c[nH]cn2)CC1 (stereo not drawn) [compound 517, N-(4-aminocyclohexyl)-1H-imidazole-4-carboxamide] | –
34 | – | > 100 µM | N[C@H]1CC[C@H](NC(=O)Cc2cc(F)cc(F)c2)CC1 [compound 362, N-((1r,4r)-4-aminocyclohexyl)-2-(3,5-difluorophenyl)acetamide] | –
35 | – | > 100 µM | NCCC(=O)N[C@H]1CC[C@H](NC(=O)c2cn3ccsc3n2)CC1 [compound 317, N-((1r,4r)-4-(3-aminopropanamido)cyclohexyl)imidazo[2,1-b]thiazole-6-carboxamide] | –
36 | – | > 100 µM | CC(NC(=O)c1cncnc1N)C1CCN(C(=O)[C@H](C)N)CC1 (stereo partly drawn) [compound 419, N-(1-(1-(L-alanyl)piperidin-4-yl)ethyl)-4-aminopyrimidine-5-carboxamide] | –
37 | – | > 100 µM | NCCC(=O)N[C@H]1CC[C@H](NC(=O)c2ccc3nonc3c2)CC1 [compound 332, N-((1r,4r)-4-(3-aminopropanamido)cyclohexyl)benzo[c][1,2,5]oxadiazole-5-carboxamide] | –
38 | – | 39.1 µM | CC1Oc2ccc(C(=O)N[C@H]3CC[C@H](N)CC3)cc2NC1=O (stereo partly drawn) [compound 452, N-((1r,4r)-4-aminocyclohexyl)-2-methyl-3-oxo-3,4-dihydro-2H-benzo[b][1,4]oxazine-6-carboxamide] | –
39 | – | > 100 µM | CC(NC(=O)c1ccc(-n2cncn2)cc1)C1CCN(C(=O)[C@H](C)N)CC1 (stereo partly drawn) [compound 472, N-(1-(1-(L-alanyl)piperidin-4-yl)ethyl)-4-(1H-1,2,4-triazol-1-yl)benzamide] | –
40 | – | > 100 µM | N[C@H]1CC[C@H](NC(=O)/C=C/c2c[nH]cn2)CC1 [compound 495, (E)-N-((1r,4r)-4-aminocyclohexyl)-3-(1H-imidazol-4-yl)acrylamide] | –
41 | – | > 100 µM | CC(NC(=O)c1ccc(N)cn1)C1CCN(C(=O)[C@H](C)N)CC1 (stereo partly drawn) [compound 357, N-(1-(1-(L-alanyl)piperidin-4-yl)ethyl)-5-aminopicolinamide] | –
42 | – | > 50 µM | N[C@H]1CC[C@H](NC(=O)c2cncnc2O)CC1 [compound 493, N-((1r,4r)-4-aminocyclohexyl)-4-hydroxypyrimidine-5-carboxamide] | –
43 | – | > 100 µM | N[C@H]1CC[C@H](NC(=O)c2cc(O)c3ccccc3n2)CC1 [compound 328, N-((1r,4r)-4-aminocyclohexyl)-4-hydroxyquinoline-2-carboxamide] | –
44 | – | 38.8 µM | NCCC(=O)N[C@H]1CC[C@H](NC(=O)Cc2ccc3c(c2)CC(=O)N3)CC1 [compound 465, 3-amino-N-((1r,4r)-4-(2-(2-oxoindolin-5-yl)acetamido)cyclohexyl)propanamide] | –
45 | – | > 50 µM | Nc1n[nH]c(C(=O)N[C@H]2CC[C@H](N)CC2)n1 [compound 508, 3-amino-N-((1r,4r)-4-aminocyclohexyl)-1H-1,2,4-triazole-5-carboxamide] | –

— patent publication US10266526B2, “Substituted 1,2,3-triazoles as SMYD inhibitors for treating cancer” (EPIZYME, INC., priority 2014, dated 2019)
